Patent US20240210412A1, “SULFONYL-TRIAZOLE COMPOUNDS USEFUL AS LIGANDS AND INHIBITORS OF PROSTAGLANDIN REDUCTASE 2” (University of Virginia Patent Foundation, priority 2021, published 2024)

Columns and labels:
PTGR2 = target: T1, PTGR2 (Homo sapiens, UniProt Q8N8N7); experiment: PTGR2 enzymatic (15-keto-PGE2 substrate) assay after live-cell treatment; assay type: biochemical; conditions: cells treated 2 h 37° C., up to 25 μM; 15-keto-PGE2 20 μM
T1 construct: host or cells: HEK293T
Method: PTGR2 enzymatic assay was performed based on a previously described chromogenic method^[17,81]. HEK293T cells expressing recombinant PTGR2 were treated with DMSO vehicle or indicated concentrations of SuTEx ligand for 2 hrs. The cells were washed with cold PBS twice and harvested. The proteomes were lysed in PBS by sonication and fractionated (100,000×g, 45 min, 4° C.). Soluble proteome (0.5 mg) was incubated for 30 min at 37° C. with 1 mM of EDTA, DTT, NADPH and 20 μM 15-Keto PGE2 in 0.1 M Tris-HCl (PH 7.5) (final volume of 230 μL) and the substrate consumed was determined by adding 20 μL 20 N NaOH, mixing and measuring absorbance at 500 nm after 5 min.
The effect of liganding tyrosine sites on the biochemical function of PTGR2 was investigated. PTGR2 has a role in metabolism and there is an ability to measure its biochemical activity using an established 15-keto-PGE2 substrate assay^[17-18]. In brief, recombinant PTGR2 expressing HEK293T cells were treated with DMSO, HHS-0701, or HHS-0101 (negative control) for 2 hours at 37° C. Cells were lysed and the soluble fractions incubated in an assay buffer containing 15-keto-PGE2 (20 μM) for 30 minutes at 37° C. After quenching reactions in NaOH, the amount of substrate remaining was quantified by absorbance of a red chromophore that forms in an alkaline solution of 15-keto-PGE2^[17-18]. […]

O75150 = target: T2, O75150 (Homo sapiens, UniProt O75150); experiment: SILAC LC-MS ABPP; assay type: cell-based; conditions: 25 μM 2 h, live DM93 cells
T2 construct: endogenous in cells; host or cells: DM93
Method: (§1) Cells were grown to 90-95% confluence before being washed once with warm, sterile DPBS (1×, 5 mL), followed by addition of 10 mL of serum-free media (supplemented with 1% L-glutamine) containing either DMSO or SuTEx fragment (in DMSO) was added. Light cells were treated with DMSO vehicle while the heavy cells were treated with DMSO or SuTEx fragment (in DMSO) and incubated for 2 hrs. After 2 hrs, the cells were treated with SuTEx alkyne probe (HHS475, 10 μL of 1000× DMSO stock) and incubated for an additional 2 hrs. The media was aspirated and cells washed with cold PBS (5 mL) and harvested. Cells were spun at 500×g for 5 min at 4° C. followed by removal of supernatant. Pellets were resuspended in 1 mL of cold DPBS and spun at 1,400×g for 3 min at 4° C. followed by removal of supernatant. The cells were lysed in PBS by sonication and fractionated (100,000×g, 45 min, 4° C.).The light and heavy soluble fractions were diluted to 2.3 mg/mL in PBS and 432 μL were used for analysis (1 mg total protein). The probe-modified proteomes were conjugated to desthiobiotin-PEG3-azide (10 μl of 10 mM stock in DMSO; 200 μM final concentration) using TCEP (10 μl of fresh 50 mM stock in water, 1 mM final concentration), TBTA ligand (33 μl of a 1.7 mM 4:1 t-butanol/DMSO stock, 100 μM final concentration) and CuSO4 (10 μl of 50 mM stock, 1 mM final concentration). Samples were vortexed to mix and incubated for 1 hr at room temperature. The heavy and light proteomes were mixed 1:1 and the subsequent steps, including LC-MS/MS data analysis, were performed as previously described^[8a].
(§2) Coupling cell-based screens with chemical proteomics can facilitate the identification of target protein and binding sites that engage and are irreversibly modified by covalent ligands^[12]. In these assays, covalent ligands block SuTEx activity-based probe (ABP) labeling at protein sites, and the competition of probe labeling can be used to quantify potency and selectivity across the proteome^[10a]. To facilitate quantitative chemical proteomics, DM93 melanoma cells were cultured using stable isotopic labeling by amino acids in cell culture (SILAC)^[13]. Cells cultured in “light” media were treated with dimethyl sulfoxide (DMSO) vehicle while cells cultured in “heavy” media were treated with SuTEx ligand (25 μM, 2 hours, 37° C.). Next, cells were treated with HHS-475 probe (100 μM, 2 hours, 37° C.) followed by lysis and processing of proteomes for analysis. Probe-modified proteins from the soluble fraction were conjugated to a desthiobiotin-azide tag by copper-catalyzed azide-alkyne cycloaddition (CuAAC)^[14] followed by mixing of the light and heavy proteomes. The combined proteomes were digested with trypsin protease to produce probe-modified peptides, followed by enrichment and purification by avidin affinity chromatography. Probe-modified peptides were resolved, identified, and quantified by high-resolution liquid chromatography-tandem mass spectrometry (LC-MS/MS). Resultant data were analyzed as previously described^[8a, 10a]. Table 2, below, lists sites of modification targeted by sulfonyl-triazole compounds HHS-0101, HHS-0201, HHS-0301, HHS-0401, and HHS-0701. The format of the table is as follows: protein Uniprot accession number (see uniprot.org); tyrosine site (amino acid position) modified; treatment (sulfonyl-triazole compound identification number, followed by Y (where if multiple compounds modify the same site, the compounds are separated by vertical lines).

Q9Y6D5 = target: T3, Q9Y6D5 (Homo sapiens, UniProt Q9Y6D5); experiment: SILAC LC-MS ABPP; assay type: cell-based; conditions: 25 μM 2 h, live DM93 cells
T3 construct: endogenous in cells; host or cells: DM93 cells (SILAC)
Method: as §1, §2

Q96AT1 = target: T4, Q96AT1 (Homo sapiens, UniProt Q96AT1); experiment: SILAC LC-MS ABPP; assay type: cell-based; conditions: 25 μM 2 h, live DM93 cells
T4 construct: endogenous in cells; host or cells: DM93 cells (SILAC), treated live; soluble proteome analysed
Method: as §1, §2

Q96AE4 = target: T5, Q96AE4 (Homo sapiens, UniProt Q96AE4); experiment: SILAC LC-MS ABPP; assay type: cell-based; conditions: 25 μM 2 h, live DM93 cells
T5 construct: endogenous in cells; host or cells: DM93 cells (SILAC), treated live; soluble proteome analysed
Method: as §1, §2

Q9Y520 = target: T6, Q9Y520 (Homo sapiens, UniProt Q9Y520); experiment: SILAC LC-MS ABPP; assay type: cell-based; conditions: 25 μM 2 h, live DM93 cells
T6 construct: endogenous in cells; host or cells: DM93 cells (SILAC)
Method: as §1, §2

T2 sequence (O75150 whole entry): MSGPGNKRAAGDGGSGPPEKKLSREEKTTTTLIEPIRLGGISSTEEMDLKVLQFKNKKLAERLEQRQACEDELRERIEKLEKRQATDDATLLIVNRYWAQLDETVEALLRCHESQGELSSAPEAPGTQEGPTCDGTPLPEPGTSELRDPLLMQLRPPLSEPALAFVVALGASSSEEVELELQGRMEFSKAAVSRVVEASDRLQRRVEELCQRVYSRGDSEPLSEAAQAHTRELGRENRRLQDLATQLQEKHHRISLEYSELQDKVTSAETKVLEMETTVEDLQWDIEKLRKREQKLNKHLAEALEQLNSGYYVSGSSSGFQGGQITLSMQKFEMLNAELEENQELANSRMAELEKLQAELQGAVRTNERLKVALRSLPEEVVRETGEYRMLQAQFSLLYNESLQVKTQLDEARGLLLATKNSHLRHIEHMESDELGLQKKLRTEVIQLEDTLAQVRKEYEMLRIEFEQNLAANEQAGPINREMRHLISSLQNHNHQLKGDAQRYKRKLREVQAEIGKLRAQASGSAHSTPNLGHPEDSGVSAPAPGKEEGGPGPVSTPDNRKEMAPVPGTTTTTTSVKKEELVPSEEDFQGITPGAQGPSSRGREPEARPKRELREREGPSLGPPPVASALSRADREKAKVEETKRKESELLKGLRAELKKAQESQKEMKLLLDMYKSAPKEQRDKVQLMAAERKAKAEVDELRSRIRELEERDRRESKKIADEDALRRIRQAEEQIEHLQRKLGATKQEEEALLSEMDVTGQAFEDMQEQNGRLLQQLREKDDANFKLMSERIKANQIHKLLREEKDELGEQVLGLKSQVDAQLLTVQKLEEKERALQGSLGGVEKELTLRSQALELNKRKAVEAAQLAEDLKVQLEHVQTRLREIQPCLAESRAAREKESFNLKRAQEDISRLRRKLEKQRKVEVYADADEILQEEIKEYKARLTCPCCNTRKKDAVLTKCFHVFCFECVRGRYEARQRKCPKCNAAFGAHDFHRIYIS
T1 sequence (Q8N8N7 whole entry): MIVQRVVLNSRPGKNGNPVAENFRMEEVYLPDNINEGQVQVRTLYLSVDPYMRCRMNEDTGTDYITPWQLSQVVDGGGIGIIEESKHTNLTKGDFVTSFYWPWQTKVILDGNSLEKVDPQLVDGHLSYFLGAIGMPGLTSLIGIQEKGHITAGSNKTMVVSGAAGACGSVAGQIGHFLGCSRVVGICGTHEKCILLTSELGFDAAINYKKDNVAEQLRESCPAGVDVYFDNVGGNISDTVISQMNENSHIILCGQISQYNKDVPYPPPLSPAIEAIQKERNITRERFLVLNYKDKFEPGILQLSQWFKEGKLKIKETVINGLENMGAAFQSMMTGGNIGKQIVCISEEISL
T3 sequence (Q9Y6D5 whole entry): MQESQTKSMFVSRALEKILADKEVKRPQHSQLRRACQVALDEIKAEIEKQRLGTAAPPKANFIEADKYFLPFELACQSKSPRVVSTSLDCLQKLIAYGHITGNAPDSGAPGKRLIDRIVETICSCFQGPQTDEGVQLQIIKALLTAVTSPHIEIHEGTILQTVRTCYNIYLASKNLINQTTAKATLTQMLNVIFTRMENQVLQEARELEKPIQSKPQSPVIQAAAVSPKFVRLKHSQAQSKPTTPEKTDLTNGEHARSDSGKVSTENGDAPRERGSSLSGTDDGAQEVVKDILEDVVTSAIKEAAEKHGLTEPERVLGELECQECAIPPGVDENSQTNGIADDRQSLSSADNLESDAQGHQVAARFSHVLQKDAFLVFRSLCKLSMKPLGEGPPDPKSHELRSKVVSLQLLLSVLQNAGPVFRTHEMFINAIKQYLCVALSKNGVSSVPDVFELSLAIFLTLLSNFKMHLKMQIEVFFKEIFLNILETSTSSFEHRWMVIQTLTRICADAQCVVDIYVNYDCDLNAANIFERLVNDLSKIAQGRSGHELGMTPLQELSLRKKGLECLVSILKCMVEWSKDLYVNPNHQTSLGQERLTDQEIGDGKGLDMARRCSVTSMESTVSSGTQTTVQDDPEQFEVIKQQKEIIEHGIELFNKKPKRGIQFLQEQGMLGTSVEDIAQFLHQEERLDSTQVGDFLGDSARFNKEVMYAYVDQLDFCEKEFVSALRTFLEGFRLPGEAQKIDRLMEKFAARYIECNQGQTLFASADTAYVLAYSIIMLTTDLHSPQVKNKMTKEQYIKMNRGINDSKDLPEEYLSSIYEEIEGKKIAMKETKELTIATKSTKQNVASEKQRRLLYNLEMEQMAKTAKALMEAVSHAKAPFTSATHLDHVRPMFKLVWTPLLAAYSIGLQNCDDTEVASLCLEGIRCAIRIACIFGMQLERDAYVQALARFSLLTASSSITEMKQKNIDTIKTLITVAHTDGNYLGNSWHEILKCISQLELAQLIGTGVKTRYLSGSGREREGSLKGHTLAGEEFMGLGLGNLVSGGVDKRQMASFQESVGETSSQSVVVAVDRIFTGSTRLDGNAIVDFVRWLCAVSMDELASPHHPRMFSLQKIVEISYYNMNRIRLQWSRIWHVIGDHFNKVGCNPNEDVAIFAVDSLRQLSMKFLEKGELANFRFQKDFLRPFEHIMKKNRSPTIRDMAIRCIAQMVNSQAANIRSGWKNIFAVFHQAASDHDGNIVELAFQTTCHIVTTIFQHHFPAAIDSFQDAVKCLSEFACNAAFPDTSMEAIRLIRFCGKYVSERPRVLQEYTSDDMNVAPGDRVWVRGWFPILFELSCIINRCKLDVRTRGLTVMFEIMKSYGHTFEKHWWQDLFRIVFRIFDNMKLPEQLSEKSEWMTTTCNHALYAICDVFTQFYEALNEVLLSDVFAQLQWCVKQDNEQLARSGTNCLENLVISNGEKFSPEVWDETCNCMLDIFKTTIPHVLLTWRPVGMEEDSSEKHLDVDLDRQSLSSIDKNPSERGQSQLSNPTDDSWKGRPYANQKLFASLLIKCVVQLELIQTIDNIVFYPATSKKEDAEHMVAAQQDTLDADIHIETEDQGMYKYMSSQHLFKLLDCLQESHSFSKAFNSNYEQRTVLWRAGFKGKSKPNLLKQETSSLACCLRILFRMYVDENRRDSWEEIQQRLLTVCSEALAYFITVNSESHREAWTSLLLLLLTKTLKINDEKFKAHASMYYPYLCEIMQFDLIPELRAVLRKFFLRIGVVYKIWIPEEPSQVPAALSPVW
T5 sequence (Q96AE4 whole entry): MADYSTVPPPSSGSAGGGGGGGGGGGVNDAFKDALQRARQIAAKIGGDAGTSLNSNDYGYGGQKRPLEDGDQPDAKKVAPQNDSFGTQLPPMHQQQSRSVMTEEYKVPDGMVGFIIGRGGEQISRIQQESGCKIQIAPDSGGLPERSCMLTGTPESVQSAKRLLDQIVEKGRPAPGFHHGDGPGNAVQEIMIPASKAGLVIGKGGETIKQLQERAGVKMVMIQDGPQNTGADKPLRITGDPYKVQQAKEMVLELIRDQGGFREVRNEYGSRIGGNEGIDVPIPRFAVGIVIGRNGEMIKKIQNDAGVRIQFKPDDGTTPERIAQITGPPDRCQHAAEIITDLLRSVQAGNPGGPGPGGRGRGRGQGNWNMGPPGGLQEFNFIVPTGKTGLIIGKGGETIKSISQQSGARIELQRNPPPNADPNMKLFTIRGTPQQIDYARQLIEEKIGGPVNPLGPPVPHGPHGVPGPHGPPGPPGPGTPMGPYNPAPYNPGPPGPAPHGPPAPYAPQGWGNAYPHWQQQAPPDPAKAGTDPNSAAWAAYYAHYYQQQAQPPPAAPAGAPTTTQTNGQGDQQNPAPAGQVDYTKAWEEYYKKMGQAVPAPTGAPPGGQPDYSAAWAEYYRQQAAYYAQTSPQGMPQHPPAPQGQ
T4 sequence (Q96AT1 whole entry): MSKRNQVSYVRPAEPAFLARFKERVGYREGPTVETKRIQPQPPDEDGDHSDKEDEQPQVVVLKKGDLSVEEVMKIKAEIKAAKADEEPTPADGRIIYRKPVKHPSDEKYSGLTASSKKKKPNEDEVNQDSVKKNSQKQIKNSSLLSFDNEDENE

With `O=C(NC1CC1)c1ccc(S(=O)(=O)n2cncn2)cc1` [HHS-0101, 4-((1H-1,2,4-triazol-1-yl)sulfonyl)-N-cyclopropylbenzamide] the “inhibition of PTGR2 biochemical activity” value (PTGR2) was “No inhibitory activity”, the “liganded tyrosine site 928” value (O75150) was “HHS0101.Y (tyrosine sites that showed >80% reductions (SR >5) in probe labeling in cells treated with compounds (liganded sites))” and the “liganded tyrosine site 1632” value (Q9Y6D5) was “HHS0101.Y|HHS0301.Y|HHS0701.Y (tyrosine sites that showed >80% reductions (SR >5) in probe labeling in cells treated with compounds (liganded sites))”. The “liganded tyrosine site 9” value (Q96AT1) was “HHS0101.Y (tyrosine sites that showed >80% reductions (SR >5) in probe labeling in cells treated with compounds (liganded sites))” and the “liganded tyrosine site 438” value (Q96AE4) was “HHS0101.Y (tyrosine sites that showed >80% reductions (SR >5) in probe labeling in cells treated with compounds (liganded sites))”.
`O=C(NCC1CC1)c1ccc(S(=O)(=O)n2cncn2)cc1` [HHS-0201, 4-((1H-1,2,4-triazol-1-yl)sulfonyl)-N-(cyclopropylmethyl)benzamide] was tested, and the “liganded tyrosine site 26” value (Q9Y520) was “HHS0201.Y (tyrosine sites that showed >80% reductions (SR >5) in probe labeling in cells treated with compounds (liganded sites))”.
For `O=C(NC1CCCCC1)c1ccc(S(=O)(=O)n2cncn2)cc1` [HHS-0301, 4-((1H-1,2,4-triazol-1-yl)sulfonyl)-N-cyclohexylbenzamide], the “liganded tyrosine site 258” value (O75150) was “HHS0301.Y (tyrosine sites that showed >80% reductions (SR >5) in probe labeling in cells treated with compounds (liganded sites))”.
With `O=C(NCc1ccccc1)c1ccc(S(=O)(=O)n2cncn2)cc1` [HHS-0401, 4-((1H-1,2,4-triazol-1-yl)sulfonyl)-N-benzylbenzamide] the “liganded tyrosine site 2707” value (Q9Y520) was “HHS0401.Y (tyrosine sites that showed >80% reductions (SR >5) in probe labeling in cells treated with compounds (liganded sites))”, the “liganded tyrosine site 97” value (Q9Y6D5) was “HHS0401.Y (tyrosine sites that showed >80% reductions (SR >5) in probe labeling in cells treated with compounds (liganded sites))” and the “liganded tyrosine site 109” value (Q96AT1) was “HHS0401.Y (tyrosine sites that showed >80% reductions (SR >5) in probe labeling in cells treated with compounds (liganded sites))”.
`O=C(c1ccc(S(=O)(=O)n2cncn2)cc1)N1CCC(c2ccccc2)CC1` [HHS-0701, (4-((1H-1,2,4-triazol-1-yl)sulfonyl)phenyl)(4-phenylpiperidin-1-yl)methanone] was tested, and the “inhibition of PTGR2 biochemical activity” value (PTGR2) was “concentration-dependent inhibition of PTGR2 activity” and the “liganded tyrosine site 619” value (Q96AE4) was “HHS0701.Y (tyrosine sites that showed >80% reductions (SR >5) in probe labeling in cells treated with compounds (liganded sites))”.
